Laboratory results published in patent US11866414B2, “Substituted heterocyclic compounds” (BRISTOL-MYERS SQUIBB COMPANY, priority 2021, dated 2024).

What was measured:
[1] = test system: IFNα-induced STAT phosphorylation (pSTAT5); assay: IFNα-induced STAT phosphorylation in human whole blood; type: cell-based; conditions: 1 h compound, 1000 U/mL IFNα A/D 15 min, CD3 positive population, read-out: Human Whole blood IFNa pSTAT5 IC50
Method: IFNα-Induced STAT Phosphorylation in Human Whole Blood
After an hour long incubation with compound, human whole blood (drawn with ACD-A as anticoagulant) was stimulated with 1000 U/mL recombinant human IFNα A/D (R&D Systems 11200-2) for 15 min. The stimulation was stopped by adding Fix/Lyse buffer (BD 558049). Cells were stained with a CD3 FITC antibody (BD 555916), washed, and permeabilized on ice using Perm III buffer (BD 558050). Cells were then stained with an Alexa-Fluor 647 pSTAT5 (pY694) antibody (BD 612599) for 60 min prior to analysis on the iQue Plus. The amount of pSTAT5 expression was quantitated by median fluorescence intensity after gating on the CD3 positive population.

in vitro = conditions: human, Caco-2, pH 7.4

| SMILES | IC50 [1] [nM] | Papp A→B at 2 h, 3 μM (in vitro) [×10⁻⁶ cm/s] | efflux ratio at 2 h, 3 μM (in vitro) |
| --- | --- | --- | --- |
| [2H]C([2H])([2H])NC(=O)c1nnc(Nc2ccn(C)n2)cc1Nc1cccc(-c2cnn(C)n2)c1OC [Example 25, 4-((2-methoxy-3-(2-methyl-2H-1,2,3-triazol-4-yl)phenyl)amino)-N-(methyl-d3)-6-((1-methyl-1H-pyrazol-3-yl)amino)pyridazine-3-carboxamide] | 60 | 1.9 | 1.2 |
| [2H]C([2H])([2H])NC(=O)c1nnc(NC(=O)[C@@H]2C[C@@H]2C)cc1Nc1cccc(-c2cnn(C)n2)c1OC [Example 26, 4-((2-methoxy-3-(2-methyl-2H-1,2,3-triazol-4-yl)phenyl)amino)-N-(methyl-d3)-6-((1R,2S)-2-methylcyclopropane-1-carboxamido)pyridazine-3-carboxamide] | 60 | 33.4 | 0.6 |
| [2H]C([2H])([2H])NC(=O)c1nnc(NC(=O)C2CC2)cc1Nc1cccc(-c2nn(C3CC3)nc2C)c1OC [Example 27, 6-(cyclopropanecarboxamido)-4-((3-(2-cyclopropyl-5-methyl-2H-1,2,3-triazol-4-yl)-2-methoxyphenyl)amino)-N-(methyl-d3)pyridazine-3-carboxamide] | 210 | 20.5 | 0.8 |
| [2H]C([2H])([2H])NC(=O)c1nnc(NC(=O)OCC)cc1Nc1cccc(-c2cnn(C)n2)c1OC [Example 28, ethyl (5-((2-methoxy-3-(2-methyl-2H-1,2,3-triazol-4-yl)phenyl)amino)-6-((methyl-d3)carbamoyl)pyridazin-3-yl)carbamate] | 370 | 28 | 0.5 |
| [2H]C([2H])([2H])NC(=O)c1nnc(NC(=O)[C@@H]2C[C@H]2F)cc1Nc1cccc(-c2cnn(C)n2)c1OC [Example 29, 6-((1S,2R)-2-fluorocyclopropane-1-carboxamido)-4-((2-methoxy-3-(2-methyl-2H-1,2,3-triazol-4-yl)phenyl)amino)-N-(methyl-d3)pyridazine-3-carboxamide] | 50 | 37.9 | 0.5 |
| [2H]C([2H])([2H])NC(=O)c1nnc(NC(=O)[C@H]2C[C@H]2C)cc1Nc1cccc(-c2cnn(C)n2)c1OC [Example 30, 4-((2-methoxy-3-(2-methyl-2H-1,2,3-triazol-4-yl)phenyl)amino)-N-(methyl-d3)-6-((1S,2R)-2-methylcyclopropane-1-carboxamido)-pyridazine-3-carboxamide] | 60 | 29.9 | 0.7 |
| [2H]C([2H])([2H])NC(=O)c1nnc(NC(=O)C2CC2(F)F)cc1Nc1cccc(-c2cnn(C)n2)c1OC (stereo not drawn) [Example 31, 6-(2,2-difluorocyclopropane-1-carboxamido)-4-((2-methoxy-3-(2-methyl-2H-1,2,3-triazol-4-yl)phenyl)amino)-N-(methyl-d3)pyridazine-3-carboxamide] | 110 | 31.3 | 0.8 |
| [2H]C([2H])([2H])NC(=O)c1nnc(NC(=O)C2CC2)cc1Nc1cc(C(=O)OC)cc(-c2cnn(C)n2)c1OC [Example 32, methyl 3-((6-(cyclopropanecarboxamido)-3-((methyl-d3)carbamoyl)-pyridazin-4-yl)amino)-4-methoxy-5-(2-methyl-2H-1,2,3-triazol-4-yl)benzoate] | 220 | 19.5 | 0.9 |
| [2H]C([2H])([2H])NC(=O)c1nnc(NC(=O)C2CC2)cc1Nc1ccc(C)c(-c2cnn(C)n2)c1OC [Example 33, 6-(cyclopropanecarboxamido)-4-((2-methoxy-4-methyl-3-(2-methyl-2H-1,2,3-triazol-4-yl)phenyl)amino)-N-(methyl-d3)pyridazine-3-carboxamide] | 80 | 34.5 | 0.8 |
| [2H]C([2H])([2H])NC(=O)c1nnc(NC(=O)C2CC2)cc1Nc1cc(C(=O)OC(C)C)cc(-c2cnn(C)n2)c1OC [Example 34, isopropyl 3-((6-(cyclopropanecarboxamido)-3-((methyl-d3)carbamoyl)pyridazin-4-yl)amino)-4-methoxy-5-(2-methyl-2H-1,2,3-triazol-4-yl)benzoate] | 160 | 20.9 | 0.3 |
| [2H]C([2H])([2H])NC(=O)c1nnc(NC(=O)C2CC2)cc1Nc1cc(COC)cc(-c2cnn(C)n2)c1OC [Example 35, 6-(Cyclopropanecarboxamido)-4-((2-methoxy-5-(methoxymethyl)-3-(2-methyl-2H-1,2,3-triazol-4-yl)phenyl)amino)-N-(methyl-d3)pyridazine-3-carboxamide] | 20 | 42.9 | 0.6 |
| [2H]C([2H])([2H])NC(=O)c1nnc(NC(=O)C2CC2(C)C)cc1Nc1nccc(-c2cnn(C)n2)c1OC (stereo not drawn) [Example 38, 6-(2,2-dimethylcyclopropane-1-carboxamido)-4-((3-methoxy-4-(2-methyl-2H-1,2,3-triazol-4-yl)pyridin-2-yl)amino)-N-(methyl-d3)pyridazine-3-carboxamide] | 440 | 33 | 0.4 |
| [2H]C([2H])([2H])NC(=O)c1nnc(NC(=O)N(C)C)cc1Nc1nccc(-c2cnn(C)n2)c1OC [Example 39, 6-(3,3-dimethylureido)-4-((3-methoxy-4-(2-methyl-2H-1,2,3-triazol-4-yl)pyridin-2-yl)amino)-N-(methyl-d3)pyridazine-3-carboxamide] | 420 | 18.8 | 0.4 |

The remaining lines, values ahead:

| IC50 [1] [nM] | Papp A→B at 2 h, 3 μM (in vitro) [×10⁻⁶ cm/s] | efflux ratio at 2 h, 3 μM (in vitro) | SMILES |
| --- | --- | --- | --- |
| 40 | 25.9 | 0.8 | [2H]C([2H])([2H])NC(=O)c1nnc(NC(=O)[C@H]2C[C@H]2C)cc1Nc1nccc(-c2cnn(C)n2)c1OC [Example 40, 4-((3-methoxy-4-(2-methyl-2H-1,2,3-triazol-4-yl)pyridin-2-yl)amino)-N-(methyl-d3)-6-((1S,2R)-2-methylcyclopropane-1-carboxamido)pyridazine-3-carboxamide] |
| 50 | 28.7 | 0.4 | [2H]C([2H])([2H])NC(=O)c1nnc(NC(=O)[C@H]2C[C@@H]2C)cc1Nc1nccc(-c2cnn(C)n2)c1OC [Example 42, 4-((3-methoxy-4-(2-methyl-2H-1,2,3-triazol-4-yl)pyridin-2-yl)amino)-N-(methyl-d3)-6-((1S,2S)-2-methylcyclopropane-1-carboxamido)pyridazine-3-carboxamide] |
| 280 | 13.4 | 0.6 | [2H]C([2H])([2H])NC(=O)c1nnc(NC(=O)[C@@H]2C[C@H]2CC)cc1Nc1nccc(-c2cnn(C)n2)c1OC [Example 43, 6-((1R,2R)-2-ethylcyclopropane-1-carboxamido)-4-((3-methoxy-4-(2-methyl-2H-1,2,3-triazol-4-yl)pyridin-2-yl)amino)-N-(methyl-d3)pyridazine-3-carboxamide] |
| 40 | 24.6 | 0.5 | [2H]C([2H])([2H])NC(=O)c1nnc(NC(=O)[C@@H]2C[C@@H]2F)cc1Nc1nccc(-c2cnn(C3CC3)n2)c1OC [Example 44, 4-((4-(2-cyclopropyl-2H-1,2,3-triazol-4-yl)-3-methoxypyridin-2-yl)amino)-6-((1S,2S)-2-fluorocyclopropane-1-carboxamido)-N-(methyl-d3)pyridazine-3-carboxamide] |
| 60 | 5.8 | 0.5 | [2H]C([2H])([2H])NC(=O)c1nnc(NC(=O)CCCF)cc1Nc1nccc(-c2cnn(C)n2)c1OC [Example 45, 6-(4-fluorobutanamido)-4-{[3-methoxy-4-(2-methyl-2H-1,2,3-triazol-4-yl)pyridin-2-yl]amino}-N—(^2H3)methylpyridazine-3-carboxamide] |
| 10 | 38.1 | 0.4 | [2H]C([2H])([2H])NC(=O)c1nnc(NC(=O)C2CC2)cc1Nc1nc(C)cc(-c2cnn(C)n2)c1OC [Example 46, 6-(cyclopropanecarboxamido)-4-((3-methoxy-6-methyl-4-(2-methyl-2H-1,2,3-triazol-4-yl)pyridin-2-yl)amino)-N-(methyl-d3)pyridazine-3-carboxamide] |
| 110 | 34 | 0.3 | [2H]C([2H])([2H])NC(=O)c1nnc(NC(=O)[C@@H]2C[C@H]2C)cc1Nc1nc(C)cc(-c2cnn(C)n2)c1OC [Example 47, 4-((3-methoxy-6-methyl-4-(2-methyl-2H-1,2,3-triazol-4-yl)pyridin-2-yl)amino)-N-(methyl-d3)-6-((1R,2R)-2-methylcyclopropane-1-carboxamido)pyridazine-3-carboxamide] |
| 6800 | 30.1 | 0.3 | [2H]C([2H])([2H])NC(=O)c1nnc(NC(=O)[C@H]2C[C@@H]2C)cc1Nc1nc(C)cc(-c2cnn(C)n2)c1OC [Example 48, 4-((3-methoxy-6-methyl-4-(2-methyl-2H-1,2,3-triazol-4-yl)pyridin-2-yl)amino)-N-(methyl-d3)-6-((1S,2S)-2-methylcyclopropane-1-carboxamido)pyridazine-3-carboxamide] |
